Reference: patent US5369016A, “Peptide amidase and the use thereof” (Forschungszentrum Juelich GmbH, priority 1990, dated 1994)
Square brackets hold non-standard residues; d marks the D form. Peptide text beside a SMILES is read from it. * marks the point of attachment. Cbz = O=C(OCc1ccccc1)*

How the values were obtained:
[1] = system: peptide amidase purified from orange flavedo; experiment: Cleavage of peptide amides with free N termini and of side chain amides; format: biochemical; conditions: amides of amino acid side chains (Asn; Gln); amino acid analyzer; 10000 µM
Method: Enzyme activity measured for the deamidation of dipeptide amides with free N termini (e.g. H-Tyr-Arg-NH2) was considerably higher than for peptide amides with an aromatic protective group, such as Z- or Bz-. Activity levels were up to 100 times higher than those measured with protected peptide amides.
Amides of amino acid side chains (Asn; Gln) Analysis
Eluent (HPLC): TBA/acetonitrile 95/5 or 96/4(*)
Reaction conditions: 10 mM substrate; 50 μg/ml peptide amidase; 50 mM
tris/HCl; pH 7.0; temperature 30° C.

[2] = system: peptide amidase; experiment: Deamidation of tripeptides containing D-amino acids (stereospecificity); format: biochemical, orange; conditions: 12 h
Method: Column: RP 18, 0.1 ml/min
Eluent: Solution of TBA (tetrabutylammonium hydrogen sulfate) and […]

[3] = system: peptide amidase; experiment: Continuous deamidation of H-Tyr-Arg-NH2 in an enzyme membrane reactor (EMR); format: biochemical, orange; conditions: 20 mM substrate, residence time 30 minute, enzyme 0.15 mg/ml
Method: A continuous process for deamidation of H-Tyr-Arg-NH2 was carried out in an EMR. The conditions for operating the EMR (corresponding to a continuously operated stirred vessel reactor) permitted a more economic utilization of the enzyme because the enzyme was removed by ultrafiltration before the product was purified. The process was carried out under the following conditions: […]

[4] = system: peptide amidase; experiment: Enzymatic cleavage of N-terminal protected dipeptide amides; format: biochemical, orange; conditions: peptide amidase
Text: The results in Table 7 were obtained using an eluent: TBA/acetonitrile 60/40 (% volume)

[5] = system: peptide amidase; experiment: Enzymatic reaction of peptide amides with a chain length of greater than three amino acids; format: biochemical, orange; conditions: peptide amidase, 6 h, 10000 µM, pH 7
Method: Enzymatic reaction of peptide amides with a chain length of greater than
three amino acids. Reaction conditions: 10 mM substrate, 40 μg/ml
50 mM tris/HCL, pH 7.0, temp. 30° C.

[6] = system: peptide amidase; experiment: Effect of organic solvents on enzyme stability; format: biochemical, orange; conditions: 27.8% solvent, 30° C.; acetone, acetonitrile, DMF, ethanol compared
Method: Ten identical mixtures of the following composition:
50 μl of enzyme solution (40 μg of protein/mixture)
were incubated at 30° C. At various times, the reaction was initiated by the addition of substrate (Z-Gly-Tyr-NH2 in 100 μl of buffer/solvent 1:1, corresponding to 10 mM/mixture) and the activity was measured.

[7] = Comparison of the activity of peptide amidase and CPD-Y (pH-stat); format: biochemical; conditions: for Amino-acid amidase activity (percent) / Amino-acid amidase activity (yes/no): strength varies depending on the amide of the amino acid
Method: The enzyme has neither peptidase activity nor amino acid amidase activity, as is evident from the results presented in Table 1 comparing the activities of a purified peptide amidase to carboxypeptidase Y in both its native and modified form.
Comparison of the activity of peptide amidase and CPD-Y;
Conditions for the determination of peptide amidase activity:
30 mM of different substrates, pH 9, 22° C., pH-stat
For the purposes of this disclosure, specific activity is defined as follows: 1 U/mg of enzyme can convert 1 μmol of substrate per minute.

**Q.** Which Conversion [1] does the source give for H--Leu--Arg--Asn here?
**A.** 0%

**Q.** With `NCC(=O)N[C@H](Cc1ccccc1)C(=O)N[C@@H](Cc1ccc(O)cc1)C(N)=O` [H--Gly--D-Phe--Tyr--NH2] (H-Gly-[dF]-Tyr-NH2) as the molecule, how does the Conversion [2] read?
**A.** 100 %/12 hours

**Q.** For `N=C(N)NCCC[C@H](NC(=O)[C@@H](N)Cc1ccc(O)cc1)C(N)=O` [Tyr--Arg--NH2, H-Tyr-Arg-NH2], which Mean conversion [3] is on record?
**A.** 92%

**Q.** With `CC(C)C[C@H](NC(=O)[C@@H]1CCCN1C(=O)OCc1ccccc1)C(=O)NCC(N)=O` [Z--Pro--Leu--Gly--NH2] (Cbz-Pro-Leu-Gly-NH2) as the molecule, how does the Yield [4] read?
**A.** 90%

**Q.** What about the Yield [5] of the same molecule?
**A.** 100 %/6 h

**Q.** Which Yield [4] does the source give for `CC(C)C[C@H](NC(=O)CNC(=O)CNC(=O)OCc1ccccc1)C(N)=O` [Z--Gly--Gly--Leu--NH2] (Cbz-Gly-Gly-Leu-NH2) here?
**A.** 100%

**Q.** And the Yield [5]?
**A.** 100 %/6 h

**Q.** Which Conversion [2] does the source give for `NCC(=O)N[C@@H](Cc1ccccc1)C(=O)N[C@H](Cc1ccccc1)C(N)=O` [H--Gly--Phe--D-Phe--NH2] (H-Gly-Phe-[dF]-NH2) here?
**A.** 0 %/12 hours

**Q.** For H--Ala--Asn, which Conversion [1] is on record?
**A.** 0%

**Q.** For `CN(C)C=O` [DMF, dimethylformamide], which “decrease in enzyme activity on incubation with solvent (in words)” value [6] is on record?
**A.** smallest decrease in enzyme activity

**Q.** For H--Ala--Gln, which Conversion [1] is on record?
**A.** 0%

**Q.** For `C[C@@H](NC(=O)[C@@H]1CCCN1C(=O)[C@@H](N)CCCNC(=N)N)C(N)=O` [H--Arg--Pro--D-Ala--NH2] (H-Arg-Pro-[dA]-NH2), which Conversion [2] is on record?
**A.** 0 %/12 hours

B1: Carboxypeptidase Y [CPD-Y (native)] (protein, UniProt P00729 112-532, looked up)
Carboxypeptidase Y: KIKDPKILGIDPNVTQYTGYLDVEDEDKHFFFWTFESRNDPAKDPVILWLNGGPGCSSLTGLFFELGPSSIGPDLKPIGNPYSWNSNATVIFLDQPVNVGFSYSGSSGVSNTVAAGKDVYNFLELFFDQFPEYVNKGQDFHIAGESYAGHYIPVFASEILSHKDRNFNLTSVLIGNGLTDPLTQYNYYEPMACGEGGEPSVLPSEECSAMEDSLERCLGLIESCYDSQSVWSCVPATIYCNNAQLAPYQRTGRNVYDIRKDCEGGNLCYPTLQDIDDYLNQDYVKEAVGAEVDHYESCNFDINRNFLFAGDWMKPYHTAVTDLLNQDLPILVYAGDKDFICNWLGNKAWTDVLPWKYDEEFASQKVRNWTASITDEVAGEVKSYKHFTYLRVFNGGHMVPFDVPENALSMVNEWIHGGFSL
**Q.** Which Peptidase activity [7] does the source give for B1 here?
**A.** yes

**Q.** What about the Specific activity ([7]; 30 mM of different substrates, pH 9, 22° C., pH-stat) of the same molecule?
**A.** 0.0082 U/mg protein

**Q.** And the “Amino-acid amidase activity (percent)” value [7]?
**A.** 0-92%

**Q.** What about the “Amino-acid amidase activity (yes/no)” value [7] of the same molecule?
**A.** yes

B2: Carboxypeptidase Y [CPD-Y (modified)] (protein, UniProt P00729 112-532, looked up)
Carboxypeptidase Y: KIKDPKILGIDPNVTQYTGYLDVEDEDKHFFFWTFESRNDPAKDPVILWLNGGPGCSSLTGLFFELGPSSIGPDLKPIGNPYSWNSNATVIFLDQPVNVGFSYSGSSGVSNTVAAGKDVYNFLELFFDQFPEYVNKGQDFHIAGESYAGHYIPVFASEILSHKDRNFNLTSVLIGNGLTDPLTQYNYYEPMACGEGGEPSVLPSEECSAMEDSLERCLGLIESCYDSQSVWSCVPATIYCNNAQLAPYQRTGRNVYDIRKDCEGGNLCYPTLQDIDDYLNQDYVKEAVGAEVDHYESCNFDINRNFLFAGDWMKPYHTAVTDLLNQDLPILVYAGDKDFICNWLGNKAWTDVLPWKYDEEFASQKVRNWTASITDEVAGEVKSYKHFTYLRVFNGGHMVPFDVPENALSMVNEWIHGGFSL
modifications: chemically modified
notes: carboxypeptidase Y in a chemically modified form
**Q.** Which results are given for B2?
**A.** Amino-acid amidase activity (percent) [7]: 0-77%; Amino-acid amidase activity (yes/no) [7]: yes
